What was measured:
[1] = target: T1, Transient receptor potential cation channel subfamily V member 4 (Homo sapiens, UniProt Q9HBA0); assay: Antagonist activity at human TRPV4
[2] = target: Transient receptor potential cation channel subfamily V member 4 (Mus musculus, UniProt Q9EPK8); assay: Agonist activity at mouse TRPV4
[3] = target: T1, Transient receptor potential cation channel subfamily V member 4; assay: Antagonist activity at TRPV4 (unknown origin)

T1 sequence (Q9HBA0 whole entry): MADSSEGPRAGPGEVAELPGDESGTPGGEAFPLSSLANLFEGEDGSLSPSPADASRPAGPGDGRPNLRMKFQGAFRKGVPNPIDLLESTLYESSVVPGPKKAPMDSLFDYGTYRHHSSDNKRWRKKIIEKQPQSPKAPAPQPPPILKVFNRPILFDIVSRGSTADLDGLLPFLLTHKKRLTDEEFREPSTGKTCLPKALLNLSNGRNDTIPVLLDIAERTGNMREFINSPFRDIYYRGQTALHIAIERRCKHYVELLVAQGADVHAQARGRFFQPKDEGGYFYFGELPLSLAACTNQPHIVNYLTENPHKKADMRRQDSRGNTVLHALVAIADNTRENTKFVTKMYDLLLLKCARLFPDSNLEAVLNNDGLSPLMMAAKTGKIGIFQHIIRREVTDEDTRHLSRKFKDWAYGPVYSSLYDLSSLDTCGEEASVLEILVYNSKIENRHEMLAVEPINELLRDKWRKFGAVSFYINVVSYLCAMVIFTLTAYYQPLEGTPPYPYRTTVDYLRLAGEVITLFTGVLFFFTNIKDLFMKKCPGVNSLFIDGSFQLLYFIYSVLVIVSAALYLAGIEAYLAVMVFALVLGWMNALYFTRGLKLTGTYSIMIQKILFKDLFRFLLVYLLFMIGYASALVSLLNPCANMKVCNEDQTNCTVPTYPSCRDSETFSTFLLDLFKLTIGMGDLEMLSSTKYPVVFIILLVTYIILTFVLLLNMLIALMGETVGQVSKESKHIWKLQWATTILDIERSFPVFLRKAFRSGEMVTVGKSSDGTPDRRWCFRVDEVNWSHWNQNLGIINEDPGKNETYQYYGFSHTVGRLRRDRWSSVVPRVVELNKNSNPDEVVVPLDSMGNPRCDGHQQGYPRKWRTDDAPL
Transient receptor potential cation channel subfamily V member 4 (Mus musculus, UniProt Q9EPK8), sequence (Q9EPK8 whole entry): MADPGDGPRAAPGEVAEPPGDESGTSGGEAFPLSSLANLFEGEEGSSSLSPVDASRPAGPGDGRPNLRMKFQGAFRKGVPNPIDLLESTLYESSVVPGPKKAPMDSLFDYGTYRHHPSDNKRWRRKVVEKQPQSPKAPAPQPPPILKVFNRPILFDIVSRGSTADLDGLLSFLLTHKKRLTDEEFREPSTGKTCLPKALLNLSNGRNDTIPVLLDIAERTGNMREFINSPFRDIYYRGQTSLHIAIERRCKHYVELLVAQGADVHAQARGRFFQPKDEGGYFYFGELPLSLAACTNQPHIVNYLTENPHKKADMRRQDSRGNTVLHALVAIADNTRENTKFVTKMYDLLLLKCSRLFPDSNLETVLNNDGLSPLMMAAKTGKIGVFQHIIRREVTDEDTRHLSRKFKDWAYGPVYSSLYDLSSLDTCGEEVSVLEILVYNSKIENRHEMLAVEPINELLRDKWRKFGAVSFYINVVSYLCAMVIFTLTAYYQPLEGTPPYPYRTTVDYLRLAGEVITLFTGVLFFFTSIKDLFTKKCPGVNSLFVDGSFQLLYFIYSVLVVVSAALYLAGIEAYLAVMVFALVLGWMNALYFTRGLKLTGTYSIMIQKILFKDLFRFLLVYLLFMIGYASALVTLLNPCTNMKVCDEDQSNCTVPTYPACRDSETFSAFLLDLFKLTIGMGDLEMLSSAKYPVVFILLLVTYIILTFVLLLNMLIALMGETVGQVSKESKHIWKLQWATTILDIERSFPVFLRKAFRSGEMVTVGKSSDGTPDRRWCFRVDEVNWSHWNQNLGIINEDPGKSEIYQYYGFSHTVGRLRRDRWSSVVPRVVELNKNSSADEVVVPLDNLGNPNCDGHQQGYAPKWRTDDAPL

C/C=C/C=C/c1c(CC=C(C)C)cc2c(c1[C@H](Nc1ccccc1C(=O)O)[C@H]1c3c(CC=C(C)C)cc4c(c3[C@@H]3OC(=O)c5ccccc5N3[C@H]1/C=C/C)OC(C)(C)[C@H](O)C4=O)OC(C)(C)[C@@H](O)C2=O (racemic)
IC50 [1]: 50.8 nM

C/C=C/C=C/c1c(CC=C(C)C)cc(CC=C(C)C)c(O)c1CO
IC50 [1]: 70000 nM

CCCCC/C=C\C/C=C\C/C=C\CC1OC1CCCC(=O)O (stereo unspecified)
EC50 [2]: 150 nM

O=[N+]([O-])c1cc(Cl)ccc1S(=O)(=O)N1CCN(Cc2ccccc2)CC1
EC50 [2]: 770 nM

C/C=C(\C)[C@H]1C(C)=C[C@H]2C[C@@H](C)C[C@@H](C(=O)O)[C@@H]2[C@@]1(C)C(=O)c1cccnc1
IC50 [1]: 81800 nM

N#Cc1ccc(OCC2(O)CN(S(=O)(=O)c3ccc(Cl)cc3Cl)C2)cc1F
IC50 [3]: 4 nM

From ChEMBL document CHEMBL4627288, “Recent advances in TRPV4 agonists and antagonists” (Bioorg Med Chem Lett, 2020)
